tested on: Pseudomonas aeruginosa PAO1; assay: MBEC assay, biofilm formation of P. aeruginosa PAO1; format: cell-based; conditions: compound concentration 100 μM, class symbols
Protocol: The compound to be tested was dissolved in DMSO to obtain a concentration that was 100 times that of the final concentration required (1 mM for the 10 μM assay and 10 mM for the 100 μM assay). 1.5 μL of the above solution was placed into each well of a 96 well plate (final volume in each well=150 μL, final DMSO concentration of 1% (v/v)).
To grow the organism and form a biofilm, a cryogenic stock of the test organism (at −70° C.) was used. A first sub-culture was streaked out onto TSA (tryptic soy agar), upon which the plate was incubated at 35±2° C. for 24 hours and stored wrapped in parafilm at 4° C. afterwards. From this first sub-culture, a second sub-culture was streaked out onto TSA. The plate was incubated at 35±2° C. for 24 hours. The second sub-culture was used within 24 hours starting from the time it was first removed from incubation. Using the second sub-culture an inoculum in 3 mL sterile water that matches a 0.5 McFarland Standard (1.5×10^8 cells per mL) was created in a glass test tube using a sterile cotton swab. 2.2 mL of this solution was diluted in 22 mL 100% TSB (tryptic soy broth) medium to a cell density of approximately […]. The diluted organism was inverted 3-5 times to achieve uniform mixing of the organism. One sample (100 μl) of the diluted organism was used for an inoculum check by serially diluting and spot plating on TSA.
To prepare a challenge plate, […] of the diluted organism was added to each well of a 96 well plate except the sterility control wells. The test compounds were added to the wells to make up final concentrations of 10 μM and […] (1.5 μL/well) in the designated location in the test plate. 128.5 μL of 100% universal neutralizer (1% Tween 80 in Cation Adjusted Mueller Hinton Broth, CAMHB) was placed in each of the wells. 130 μL of media was added to the growth control wells. 128.5 μL of media+1.5 μL of DMSO were added to a second set of growth control wells. 150 μL of media was added to the sterility controls. Each sample was run in triplicate. The plate was covered by a lid with a peg per well and wrapped in parafilm and placed on a shaker in a humidified incubator (GeneVac) at 35±+2° C. for 24 hours set at 110 rpm.
Rinse plate(s) of 0.9% saline (200 μL per well) were prepared in a sterile 96 well microtitre plate. Lid-associated pegs were rinsed in 0.9% saline for approximately 1-2 minutes. The peg lid was transferred to the recovery media (1.0% Tween 80 in CAMHB) then sonicated for 30 minutes to dislodge surviving biofilm. Following sonication, 100 μL from each well of the 96 well plate was placed into the first 12 wells of the first row of a 96 well microtiter plate. 180 μl of 0.9% sterile saline was placed in the remaining rows. A serial dilution (10^0-10^7) was prepared by moving 20 μl down each of the 8 rows. 20 μl from each well was removed and spot plated on a prepared TSA. In the remaining recovery plate, 100 μl of fresh growth media (1.0% Tween 80 in CAMHB) was placed in each well to replace the amount removed. The recovery plate was covered with a regular lid and incubated at 35±2° C. for 24 hours and read visually to confirm antimicrobial activity of the test compounds.
The compounds of the present disclosure have been tested regarding their efficiency to inhibit biofilm formation of Staphylococcus aureus U of C#18 (MRSA), Staphylococcus aureus 456 (MRSA), Staphylococcus epidermidis RP62A, and Pseudomonas aeruginosa PAO1.

| SMILES | inhibition at 100 µM |
| --- | --- |
| CCCCCCCCCC(=O)N[C@@H]1CCCC[C@H]1O (relative stereo) [Example 34, trans-N-(2-hydroxycyclohexyl)decanamide] | 20 to 50% |
| CCCCCCCCCCCC(=O)N[C@@H]1CCCC[C@H]1O (relative stereo) [Example 35, trans-N-(2-hydroxycyclohexyl)dodecanamide] | 20 to 50% |
| CCCCCCCCCC(=O)N[C@H]1CCC[C@H]1C(=O)O (relative stereo) [Example 36, cis-2-decanamidocyclopentanecarboxylic acid] | < 20% |
| CCCCCCCCCCCC(=O)Nc1ccccc1 [Example 13, N-phenyldodecanamide] | < 20% |
| CCCCCCCCCCCC(=O)N(C)c1ccccc1 [Example 14, N-methyl-N-phenyldodecanamide] | > 50% |
| CCCCCCCCCCCC(=O)Nc1ccccc1F [Example 15, N-(2-fluorophenyl)dodecanamide] | < 20% |
| CCCCCCCCCCCC(=O)N(C)c1ccccc1F [Example 16, N-(2-fluorophenyl)-N-methyldodecanamide] | > 50% |
| CCCCCCCCCCCC(=O)Nc1cccc(F)c1 [Example 17, N-(3-fluorophenyl)dodecanamide] | 20 to 50% |
| CCCCCCCCCCCC(=O)N(C)c1cccc(F)c1 [Example 18, N-(3-fluorophenyl)-N-methyldodecanamide] | > 50% |
| CCCCCCCCCCCC(=O)Nc1ccc(F)cc1 [Example 19, N-(4-fluorophenyl)dodecanamide] | < 20% |
| CCCCCCCCCCCC(=O)N(C)c1ccc(F)cc1 [Example 20, N-(4-fluorophenyl)-N-methyldodecanamide] | > 50% |
| CCCCCCCCCCCC(=O)Nc1ccc(F)cc1F [Example 21, N-(2,4-difluorophenyl)dodecanamide] | < 20% |
| CCCCCCCCCCCC(=O)N(C)c1ccc(F)cc1F [Example 22, N-(2,4-difluorophenyl)-N-methyldodecanamide] | > 50% |
| CCCCCCCCCCCC(=O)Nc1ccccc1C(F)(F)F [Example 23, N-(2-(trifluoromethyl)phenyl)dodecanamide] | < 20% |
| CCCCCCCCCCCC(=O)Nc1ccc(F)cc1C(F)(F)F [Example 24, N-(4-fluoro-2-(trifluoromethyl)phenyl)dodecanamide] | < 20% |
| CCCCCCCCCCCC(=O)Nc1ccccc1C(=O)O [Example 25, 2-dodecanamidobenzoic acid] | > 50% |
| CCCCCCCCCCCC(=O)N(C)c1ccccc1C(=O)O [Example 26, 2-(N-methyldodecanamido)benzoic acid] | 20 to 50% |
| CCCCCCCCCCCC(=O)Nc1ccccc1S(=O)(=O)O [Example 27, 2-dodecanamidobenzenesulfonic acid] | 20 to 50% |
| CCCCCCCCCCCC(=O)N[C@@H](C)c1ccccc1 [Example 28, (S)-N-(1-phenylethyl)dodecanamide] | 20 to 50% |
| CCCCCCCCCC(=O)NCc1ccco1 [Example 29, N-(furan-2-ylmethyl)decanamide] | 20 to 50% |
| CCCCCCCCCCCC(=O)Nc1cc(C)nn1C(C)(C)C [Example 30, N-(1-tert-butyl-3-methylpyrazol-5-yl)dodecanamide] | > 50% |
| CCCCCCCCCCCC(=O)Nc1cc(C)nn1-c1ccccc1 [Example 31, N-(3-methyl-1-phenylpyrazol-5-yl)dodecanamide] | < 20% |
| CCCCCCCCCC(=O)N[C@H]1CCOC1=O [Example 32, N-decanoyl-L-homoserinelactone] | < 20% |
| CCCCCCCCCCCC(=O)N[C@H]1CCOC1=O [Example 33, N-dodecanoyl-L-homoserinelactone] | < 20% |
| CCCCCCCCCCCC(=O)N1CCCCC1CO (centres unmarked) [Example 37, 1-(2-(hydroxymethyl)piperidin-1-yl)dodecan-1-one] | > 50% |

| SMILES | inhibition at 100 µM |
| --- | --- |
| CCCCNC(=O)Nc1cc(C)nn1C [Example 38, 1-butyl-3-(1,3-dimethylpyrazol-5-yl)urea] | < 20% |
| CCCCNC(=O)Nc1cc(C2CC2)nn1C [Example 39, 1-butyl-3-(3-cyclopropyl-1-methylpyrazol-5-yl)urea] | < 20% |
| CCCCNC(=O)Nc1cc(C(C)(C)C)nn1C [Example 40, 1-butyl-3-(3-tert-butyl-1-methylpyrazol-5-yl)urea] | < 20% |
| CCCCCCNC(=O)Nc1cc(C)nn1C [Example 41, 1-(1,3-dimethylpyrazol-5-yl)-3-hexylurea] | < 20% |
| CCCCCCNC(=O)Nc1cc(C2CC2)nn1C [Example 42, 1-(3-cyclopropyl-1-methylpyrazol-5-yl)-3-hexylurea] | 20 to 50% |
| CCCCCCNC(=O)Nc1cc(C(C)(C)C)nn1C [Example 43, 1-(3-tert-butyl-1-methylpyrazol-5-yl)-3-hexylurea] | 20 to 50% |
| CCCCCCCCNC(=O)Nc1cc(C)nn1C [Example 44, 1-(1,3-dimethylpyrazol-5-yl)-3-octylurea] | 20 to 50% |
| CCCCCCCCNC(=O)Nc1cc(C2CC2)nn1C [Example 45, 1-(3-cyclopropyl-1-methylpyrazol-5-yl)-3-octylurea] | 20 to 50% |
| CCCCCCCCNC(=O)Nc1cc(C(C)(C)C)nn1C [Example 46, 1-(3-tert-butyl-1-methylpyrazol-5-yl)-3-octylurea] | > 50% |
| CCCCCCCCCCNC(=O)Nc1ccccc1 [Example 48, 1-decyl-3-phenylurea] | < 20% |
| CCCCCCCCCCNC(=O)Nc1ccccc1F [Example 49, 1-decyl-3-(2-fluorophenyl)urea] | < 20% |
| CCCCCCCCCCNC(=O)N(C)c1ccccc1F [Example 50, 3-decyl-1-(2-fluorophenyl)-1-methylurea] | 20 to 50% |
| CCCCCCCCCCNC(=O)Nc1cccc(F)c1 [Example 51, 1-decyl-3-(3-fluorophenyl)urea] | < 20% |
| CCCCCCCCCCNC(=O)N(C)c1cccc(F)c1 [Example 52, 3-decyl-1-(3-fluorophenyl)-1-methylurea] | 20 to 50% |
| CCCCCCCCCCNC(=O)Nc1ccc(F)cc1 [Example 53, 1-decyl-3-(4-fluorophenyl)urea] | < 20% |
| CCCCCCCCCCNC(=O)N(C)c1ccc(F)cc1 [Example 54, 3-decyl-1-(4-fluorophenyl)-1-methylurea] | > 50% |
| CCCCCCCCCCNC(=O)Nc1ccc(F)cc1F [Example 55, 1-decyl-3-(2,4-difluorophenyl)urea] | < 20% |
| CCCCCCCCCCNC(=O)N(C)c1ccc(F)cc1F [Example 56, 3-decyl-1-(2,4-difluorophenyl)-1-methylurea] | < 20% |
| CCCCCCCCCCNC(=O)Nc1ccccc1C(F)(F)F [Example 57, 1-decyl-3-(2-(trifluoromethyl)phenyl)urea] | 20 to 50% |
| CCCCCCCCCCNC(=O)N(C)c1ccccc1C(F)(F)F [Example 58, 3-decyl-1-methyl-1-(2-(trifluoromethyl)phenyl)urea] | > 50% |
| CCCCCCCCCCNC(=O)N[C@@H](C)c1ccccc1 [Example 59, (S)-1-decyl-3-(1-phenylethyl)urea] | < 20% |
| CCCCCCCCCCNC(=O)N(C)[C@H](C)c1ccccc1 [Example 60, (R)-3-decyl-1-methyl-1-(1-phenylethyl)urea] | > 50% |
| CCCCCCCCCCNC(=O)Nc1ccnn1C [Example 61, 1-decyl-3-(1-methylpyrazol-5-yl)urea] | 20 to 50% |
| CCCCCCCCCCNC(=O)Nc1cc(C)ns1 [Example 62, 1-decyl-3-(3-methylisothiazol-5-yl)urea] | < 20% |
| CCCCCCCCCCNC(=O)Nc1cc(C)nn1C [Example 63, 1-decyl-3-(1,3-dimethylpyrazol-5-yl)urea] | 20 to 50% |
